Key:
Assay in all cases: relative viability (nuclei count vs DMSO), 5 days (fraction); higher = more cells survive
[1] = compound: CCn1c(-c2nonc2N)nc2cnc(Oc3cccc(NC(=O)c4ccc(OCCN5CCOCC5)cc4)c3)cc21 + CS(=O)(=O)CCNCc1ccc(-c2ccc3ncnc(Nc4ccc(OCc5cccc(F)c5)c(Cl)c4)c3c2)o1 [Lapatinib] (partner 2 µM)
Procedure, shortened: (§1)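 Medians of duplicate plates are given as relative viability. That measure is the nuclei count in treated wells divided by the count in vehicle wells. Counts were taken on 4× images of lung cancer cell lines in 1536-well plates, 5 days after pin-tool dosing the day after seeding with one drug alone or a fixed anchor-drug dose plus five library-drug doses (not always all listed) in √10 steps.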

[2] = compound: CCC1=CN=CN=C1N2CCN(CC2)CC3=NC4=C(N3)C=C(C=C4)C(F)(F)F + N=C(N)NC(=N)NCCc1ccccc1 [Phenformin] (partner 250 µM)
Procedure, shortened: as §1

Mirin + Phenformin = compound: N=C1NC(=O)/C(=C/c2ccc(O)cc2)S1 [Mirin] + N=C(N)NC(=N)NCCc1ccccc1 [Phenformin] (partner 250 µM)
Procedure, shortened: as §1

Mirin + Olaparib = compound: N=C1NC(=O)/C(=C/c2ccc(O)cc2)S1 [Mirin] + O=C(c1cc(Cc2n[nH]c(=O)c3ccccc23)ccc1F)N1CCN(C(=O)C2CC2)CC1 [Olaparib] (partner 8 µM)
Procedure, shortened: as §1

| Cell Line | relative viability ([1]; first compound 0.04 µM) | relative viability ([1]; first compound 0.1265 µM) | relative viability ([1]; first compound 0.4 µM) | relative viability ([1]; first compound 1.265 µM) | relative viability ([1]; first compound 4 µM) | relative viability ([2]; first compound 0.04 µM) | relative viability ([2]; first compound 0.1265 µM) | relative viability ([2]; first compound 0.4 µM) | relative viability ([2]; first compound 1.265 µM) | relative viability ([2]; first compound 4 µM) | relative viability (Mirin + Phenformin; first compound 0.25 µM) | relative viability (Mirin + Phenformin; first compound 0.7906 µM) | relative viability (Mirin + Phenformin; first compound 2.5 µM) | relative viability (Mirin + Phenformin; first compound 7.906 µM) | relative viability (Mirin + Phenformin; first compound 25 µM) | relative viability (Mirin + Olaparib; first compound 0.25 µM) | relative viability (Mirin + Olaparib; first compound 0.7906 µM) | relative viability (Mirin + Olaparib; first compound 2.5 µM) | relative viability (Mirin + Olaparib; first compound 7.906 µM) | relative viability (Mirin + Olaparib; first compound 25 µM) |
| --- | --- | --- | --- | --- | --- | --- | --- | --- | --- | --- | --- | --- | --- | --- | --- | --- | --- | --- | --- | --- |
| 201T | 1.07 | 0.967 | 0.78 | 0.911 | 0.868 | 0.517 | 0.455 | 0.474 | 0.431 | 0.442 | 0.463 | 0.494 | 0.454 | 0.463 | 0.568 | 0.877 | 0.888 | 0.886 | 0.902 | 1.03 |
| A549 | 1.25 | 0.916 | 0.884 | 0.118 | 0.107 | 0.178 | 0.143 | 0.191 | 0.161 | 0.164 | 0.129 | 0.138 | 0.159 | 0.189 | 0.235 | 0.342 | 0.229 | 0.333 | 0.243 | 0.367 |
| A-427 | 1.2 | 1.04 | 0.903 | 0.993 | 0.582 | 0.3 | 0.292 | 0.225 | 0.234 | 0.224 | 0.311 | – | 0.363 | 0.266 | 0.348 | 0.769 | 0.682 | 0.631 | 0.766 | 0.766 |
| ABC-1 | 1.3 | 0.997 | – | – | 1.08 | 0.262 | 0.238 | 0.223 | 0.243 | 0.268 | 0.263 | 0.21 | 0.269 | 0.257 | 0.206 | 0.887 | 0.618 | 0.78 | 0.593 | 0.41 |
| BEN | 0.627 | 0.695 | 0.348 | 0.279 | 0.317 | 0.254 | 0.255 | 0.229 | 0.253 | 0.265 | 0.255 | 0.288 | 0.266 | 0.248 | 0.273 | 0.958 | 0.987 | 1.21 | 0.962 | 0.638 |
| CAL-12T | 1.25 | 0.817 | 0.849 | – | 0.685 | 0.551 | 0.616 | 0.626 | 0.548 | 0.643 | 0.627 | – | 0.665 | 0.591 | 0.657 | 0.733 | 0.821 | 0.668 | 0.658 | 0.531 |
| Calu-6 | 1.22 | 0.932 | 0.985 | 0.616 | 0.517 | – | – | – | – | – | – | – | – | – | – | 0.554 | 0.673 | 0.618 | 0.397 | 0.482 |
| ChaGo-K-1 | – | – | – | – | – | 0.462 | 0.5 | 0.409 | 0.443 | 0.482 | 0.485 | 0.428 | 0.49 | 0.423 | 0.324 | 0.415 | 0.363 | 0.43 | 0.381 | 0.253 |

Source: the supplement of paper PMC10307832
